Our source for the IC50 values is publication PMC7182600 (Influenza and Other Respiratory Viruses, 2020).

The assay addresses NA of rPhuket3073/Yamagata (wild‐type) (Influenza B virus, UniProt A0A1S5RAG6). It is filed as biochemical. As to conditions: read-out: IC50 values of NA inhibitors.

Chain of NA of rPhuket3073/Yamagata (wild‐type) (A0A1S5RAG6 entry or part of it, added parts left off): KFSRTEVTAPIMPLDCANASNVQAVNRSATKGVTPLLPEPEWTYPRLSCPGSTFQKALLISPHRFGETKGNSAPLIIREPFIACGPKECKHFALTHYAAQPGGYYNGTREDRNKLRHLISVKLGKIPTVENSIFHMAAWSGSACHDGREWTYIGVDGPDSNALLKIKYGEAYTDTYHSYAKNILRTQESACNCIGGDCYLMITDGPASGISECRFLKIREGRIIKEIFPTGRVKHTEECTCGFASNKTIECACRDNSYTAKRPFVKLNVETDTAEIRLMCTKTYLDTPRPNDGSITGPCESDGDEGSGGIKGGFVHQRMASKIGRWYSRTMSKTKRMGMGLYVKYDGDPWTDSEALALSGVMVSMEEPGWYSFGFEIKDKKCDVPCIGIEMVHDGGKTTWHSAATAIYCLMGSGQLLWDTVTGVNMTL

In the case of Peramivir, the IC50 (usually the point on the concentration scale where inhibition reaches its midpoint) was found to be 0.5 nM.
